Test results reported in ChEMBL document CHEMBL1909046, “DrugMatrix in vitro pharmacology data”.

Assays:
[1] = DRUGMATRIX: Tumor Necrosis Factor (TNF), Non-Selective radioligand binding (ligand: [125I] TNF-alpha); type: cell membranes, Membrane; conditions: u-937; Not Active = under 50% inhibition at 10 µM
[2] = DRUGMATRIX: Atrial Natriuretic Factor (ANF) radioligand binding (ligand: [125I] ANF (rat)); type: cell membranes, Cavia porcellus, Dunkin-Hartley, Adrenal gland, Membrane; conditions: Not Active = under 50% inhibition at 10 µM
[3] = biological target: T1, Adenosine receptor A3 (Homo sapiens, UniProt P0DMS8); type: cell membranes, CHO-K1, Membrane; conditions: cho-k1;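 further: radioligand binding assay with AB-MECA serving as the labeled ligand; in other assays of this panel Not Active means under 50% inhibition at 10 µM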
T1 sequence (P0DMS8 whole entry): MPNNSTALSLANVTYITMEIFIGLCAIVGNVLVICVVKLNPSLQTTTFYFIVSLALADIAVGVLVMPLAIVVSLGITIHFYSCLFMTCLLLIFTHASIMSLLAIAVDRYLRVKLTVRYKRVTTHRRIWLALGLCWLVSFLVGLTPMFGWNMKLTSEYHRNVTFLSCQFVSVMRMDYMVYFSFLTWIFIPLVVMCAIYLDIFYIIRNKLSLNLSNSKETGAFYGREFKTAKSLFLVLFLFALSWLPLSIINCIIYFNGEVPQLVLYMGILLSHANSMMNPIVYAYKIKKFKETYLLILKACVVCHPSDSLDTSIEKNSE

[4] = DRUGMATRIX: Interleukin IL-1 radioligand binding (ligand: [125I] interleukin 1beta); type: cell membranes, Membrane; conditions: nih3t3; Not Active = under 50% inhibition at 10 µM
[5] = biological target: Melanocortin receptor 5 (Homo sapiens, UniProt P33032); type: cell membranes, HEK293, Membrane; conditions: hek293; further: in other assays of this panel Not Active means under 50% inhibition at 10 µM
[6] = biological target: Cytochrome P450 2E1 (Homo sapiens, UniProt P05181); conditions: bti-tn-5b1-4; further: in other assays of this panel Not Active means under 50% inhibition at 10 µM
[7] = biological target: T2, Adenosine receptor A1 (Homo sapiens, UniProt P30542); type: cell membranes, CHO, Membrane; conditions: cho;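 further: radioligand binding assay at the adenosine A1 receptor, with DPCPX serving as the labelled ligand; in other assays of this panel Not Active means under 50% inhibition at 10 µM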
T2 sequence (P30542 whole entry): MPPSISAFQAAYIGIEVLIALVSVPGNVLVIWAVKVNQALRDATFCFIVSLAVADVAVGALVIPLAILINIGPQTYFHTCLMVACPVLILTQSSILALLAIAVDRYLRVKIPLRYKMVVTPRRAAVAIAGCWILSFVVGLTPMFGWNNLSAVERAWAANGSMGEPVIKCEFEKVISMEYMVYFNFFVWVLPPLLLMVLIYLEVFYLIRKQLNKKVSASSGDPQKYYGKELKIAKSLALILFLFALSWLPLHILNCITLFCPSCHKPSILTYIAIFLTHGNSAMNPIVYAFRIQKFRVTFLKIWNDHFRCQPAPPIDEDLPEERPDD

Cytochrome P450 2E1, sequence (P05181 whole entry): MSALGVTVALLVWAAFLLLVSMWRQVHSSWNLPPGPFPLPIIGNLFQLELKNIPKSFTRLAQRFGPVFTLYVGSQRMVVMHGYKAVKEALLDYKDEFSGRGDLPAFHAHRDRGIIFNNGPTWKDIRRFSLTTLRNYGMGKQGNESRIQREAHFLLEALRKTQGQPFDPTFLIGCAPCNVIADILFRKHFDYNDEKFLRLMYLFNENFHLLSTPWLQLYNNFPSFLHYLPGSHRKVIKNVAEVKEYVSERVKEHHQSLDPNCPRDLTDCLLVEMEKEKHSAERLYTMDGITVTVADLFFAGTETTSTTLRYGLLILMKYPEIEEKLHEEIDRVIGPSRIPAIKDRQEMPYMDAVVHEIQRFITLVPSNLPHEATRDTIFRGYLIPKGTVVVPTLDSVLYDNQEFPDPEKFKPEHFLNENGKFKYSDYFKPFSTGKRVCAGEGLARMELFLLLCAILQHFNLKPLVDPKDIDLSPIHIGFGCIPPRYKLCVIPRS
Melanocortin receptor 5, sequence (P33032 whole entry): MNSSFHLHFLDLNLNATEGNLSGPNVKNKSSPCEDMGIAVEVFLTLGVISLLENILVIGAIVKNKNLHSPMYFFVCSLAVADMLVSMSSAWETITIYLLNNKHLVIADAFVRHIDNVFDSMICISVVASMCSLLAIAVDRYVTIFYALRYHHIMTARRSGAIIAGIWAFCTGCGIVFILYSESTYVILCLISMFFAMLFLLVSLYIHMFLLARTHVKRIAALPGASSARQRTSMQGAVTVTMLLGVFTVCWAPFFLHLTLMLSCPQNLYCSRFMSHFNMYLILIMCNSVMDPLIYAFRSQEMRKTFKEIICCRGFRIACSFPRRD

CC(O)CO (stereo not drawn) [PROPYLENE GLYCOL]
Not Active: IC50 [1] | Ki [1] | IC50 [2] | Ki [2] | IC50 [3] | IC50 [4] | Ki [4] | IC50 [5] | IC50 [6] | Ki [6] | IC50 [7]

CADMIUM ACETATE
Not Active: IC50 [1] | Ki [1] | IC50 [2] | Ki [2] | IC50 [3] | Ki [3] | IC50 [4] | Ki [4] | IC50 [5] | Ki [5] | IC50 [6] | Ki [6] | IC50 [7] | Ki [7]

LEAD (II) ACETATE
Not Active: IC50 [1] | Ki [1] | IC50 [2] | Ki [2] | IC50 [3] | Ki [3] | IC50 [4] | Ki [4] | IC50 [5] | Ki [5] | IC50 [6] | Ki [6] | IC50 [7] | Ki [7]

LIPOPOLYSACCHARIDE E. COLI O55:B5
Not Active: IC50 [1] | Ki [1] | IC50 [2] | Ki [2] | IC50 [3] | Ki [3] | IC50 [4] | Ki [4] | IC50 [5] | Ki [5] | IC50 [6] | Ki [6] | IC50 [7] | Ki [7]
